Experimental data from US20260199289A1, “USE OF GLYCOGEN METABOLISM INHIBITORS FOR THE TREATMENT OF CANCER” (THE UNIVERSITY OF VERMONT AND STATE AGRICULTURAL COLLEGE, priority 2022, published 2026).
Entries after “also recorded” stand apart in the source; their conditions may differ. Like-named read-outs stand apart in the source and are kept apart here.

Tests used:
Type in all cases: cell-based, human
8505C cells [1] = assay: Glycogen content (colorimetric assay, TEM) in ATC cells; conditions: ATC cells (8505C), CP-91,149 50 μM, 24-hour incubation, colorimetry and TEM
Procedure: Transmission Electron Microscopy of Glycogen Deposits—Cells were seeded in 10 cm dishes and allowed to adhere overnight. […] Cells were then rinsed with PBS and lifted with trypsin for preparation for TEM as described previously. Thwe et al., “Cell-intrinsic Glycogen Metabolism Supports Early Glycolytic Reprogramming Required for Dendritic Cell Immune Responses,” Cell Metabolism 26:558-567.e555 (2017), which is hereby incorporated by reference in its entirety.
PYGB RNA Interference—For validating successful PYGB knockdown, 4.0×10^4 cells were plated in 12 well plates containing 0.2% Lipofectamine™ 3000 Transfection Reagent and the indicated concentration of siRNA targeting PYGB or control siRNA in 1 ml CTM. RNA was extracted 72 hours later for RT-qPCR analysis and protein was extracted 96 hours later for immunoblotting. For measuring the effect of PYGB knockdown on cell viability, 1.0×10^3 cells were seeded in 96 well plates with 0.15% Lipofectamine™ 3000 Transfection Reagent and the indicated concentration of siRNA targeting PYGB or control siRNA in 200 μl CTM for 7 days before conducting the SRB assay. For measuring the effect of PYGB knockdown on glycogen content, 6.5×10^5 cells were seeded in 10 cm dishes with 0.2% Lipofectamine™ 3000 Transfection Reagent and the indicated concentration of siRNA targeting PYGB or control siRNA in 10 ml CTM for 4 days preceding cell lysis for glycogen determination.
(§1) Quantification of Levels of Glycogen, Glucose-1-Phosphate, Glucose-6-Phosphate, Lactate, ATP, Glucose, NADPH, and Glutathione—Briefly, cells were seeded in 10 cm dishes (for measuring glycogen and NADPH), 6 well plates (GIP, G6P, lactate, glucose, and glutathione), or 96 well plates (ATP) and allowed to adhere overnight. CTM was aspirated and cells were rinsed with PBS before application of compounds dissolved in CTM for 24 hours, at which point cells were ~90% confluent. CTM was then aspirated, cells were rinsed with PBS, and lysed according to the respective manufacturer protocol (see Table 4) for metabolite analysis.

8505C cells [2] = assay: Immunoblot of apoptosis markers and Ki-67 in ATC cells; conditions: for apoptosis (PARP, caspase 9 and caspase 7 cleavage): six hours
Procedure: (§2) Briefly, proteins were isolated from whole cells in lysis buffer (20 mM Tris-HCl (pH 8), 137 mM NaCl, 10% glycerol, 1% Triton X-100, and 2 mM EDTA), quantified via Pierce™ BCA Protein Assay Kit (Thermo Fisher Scientific), and 25 μg protein/sample were resolved by polyacrylamide gel electrophoresis and immobilized onto nitrocellulose membranes. Membranes were blocked with 5% w/v BSA in TBS and 0.1% v/v Tween20 (Gold Bio, St Louis, MO, USA) for one hour at room temperature and incubated with primary antibodies overnight. Membranes were washed with TBS-0.1% Tween20 and secondary antibodies were applied for 1 hour at room temperature in 5% w/v BSA in TBS and 0.1% v/v Tween20. Immunoreactive proteins were detected by enhanced chemiluminescence (Thermo Scientific) on a ChemiDoc XRS+ (Bio-Rad Laboratories). Densitometry analysis was performed using ImageJ.

Nthy-ori-3-1 cells = assay: Immunoblot of apoptosis markers and Ki-67 in normal thyroid cells
Procedure: as §2

8505C cells [3] = assay: Cell attachment to fibronectin-coated plates; conditions: 24 hours of 50 μM CP treatment
Description: Cells were washed with PBS and lifted with trypsin.

8505C cells [4] = assay: Quantification of G1P, G6P, lactate, ATP, glucose, NADPH and glutathione; conditions: 50 μM CP-91,149, 24 hours
Procedure: as §1

8505C cells [5] = assay: Metabolic flux analysis (Seahorse ECAR and OCR); conditions: for extracellular acidification rate (ECAR): 8505C cells; for oxygen consumption rate (OCR): 50 μM CP-91,149, 24 hours
Procedure: Metabolic Flux Analysis—Thyroid cells (5.0×10^4) were plated in a 96 well Seahorse culture plate with compounds of interest diluted in 200 μl CTM for 24 hours. Cells were washed with PBS and equilibrated for 1 hour at 37° C. in a non-CO2 incubator with compounds of interest diluted in Seahorse RPMI (supplemented with 11.1 mM glucose, 2 mM glutamine, and 5% serum) before analysis of OCR and ECAR in a Metabolic Flux Analyzer (Seahorse Bioscience, North Billerica, MA 96XP).

SMILES: CN(C)C(=O)[C@H](O)[C@H](Cc1ccccc1)NC(=O)c1cc2cc(Cl)ccc2[nH]1 [CP-91,149, 5-chloro-N-[(2S,3R)-4-(dimethylamino)-3-hydroxy-4-oxo-1-phenylbutan-2-yl]-1H-indole-2-carboxamide]
- glycogen content (8505C cells [1]): increased glycogen content; also recorded: causes a buildup of glycogen
- glycogen content (8505C cells [1]; listed as CP): significantly increased glycogen content
- proliferation marker Ki-67 expression (8505C cells [2]): inhibits proliferation
- proliferation marker Ki-67 expression (8505C cells [2]; listed as CP): reduced expression of the proliferation marker Ki-67
- apoptosis (PARP, caspase 9 and caspase 7 cleavage) (8505C cells [2]): induced apoptosis in ATC cells
- apoptosis (PARP, caspase 9 and caspase 7 cleavage) (8505C cells [2]; listed as CP): significant PARP, caspase 9, and caspase 7 cleavage
- apoptosis (PARP, caspase 9 and caspase 7 cleavage) (8505C cells [2]; listed as CP-911,49): induces apoptosis
- apoptosis (PARP and caspase cleavage) (Nthy-ori-3-1 cells): but not normal thyroid cells
- apoptosis (PARP and caspase cleavage) (Nthy-ori-3-1 cells; listed as CP): did not significantly induce apoptosis
- proliferation (Ki-67 levels) (Nthy-ori-3-1 cells; listed as CP): not affected
- cell attachment to fibronectin-coated plates (8505C cells [3]): inhibits cell attachment
- cell attachment to fibronectin-coated plates (8505C cells [3]; listed as CP): inhibited the ability of 8505C cells to attach to fibronectin-coated plates
- NADPH level (8505C cells [4]; 8505C cells): decreased NADPH levels; also recorded: decreases the available supply of NADPH
- extracellular glucose / glucose uptake from the cell culture media (8505C cells [4]; 8505C cells): causes an increase in glucose uptake from the cell culture media
- glucose-1-phosphate (G1P) level (8505C cells [4]; 8505C cells): causes a buildup in glucose-1-phosphate
- glucose-6-phosphate (G6P) level (8505C cells [4]; 8505C cells): a reduction in glucose-6-phosphate
- lactate production (8505C cells [4]; 8505C cells): enhances
- reduced glutathione (GSH) (8505C cells [4]; 8505C cells): decreases the relative amount of reduced glutathione (GSH)
- NADPH level (8505C cells [4]; 8505C cells, listed as CP): drastic decrease in NADPH
- extracellular glucose / glucose uptake from the cell culture media (8505C cells [4]; 8505C cells, listed as CP): significant reduction in extracellular glucose
- glucose-1-phosphate (G1P) level (8505C cells [4]; 8505C cells, listed as CP): a buildup of the glycogen monomer, glucose-1-phosphate (G1P)
- glucose-6-phosphate (G6P) level (8505C cells [4]; 8505C cells, listed as CP): a decrease in the glycolytic intermediate, glucose-6-phosphate (G6P)
- reduced glutathione (GSH) (8505C cells [4]; 8505C cells, listed as CP): concomitant loss in reduced glutathione (GSH)
- ATP levels (8505C cells [4]; ATC cells): decreases the levels of ATP
- extracellular acidification rate (ECAR) (8505C cells [5]): enhances extracellular acidification rate
- extracellular acidification rate (ECAR) (8505C cells [5]; listed as CP): modestly but significantly enhanced ECAR
- increase of OCR to compensate for inhibition of glycolysis with 2-DG (8505C cells [5]; ATC cells, CP-treated versus vehicle-treated): unable to increase their oxidative phosphorylation
- oxygen consumption rate (OCR) (8505C cells [5]; ATC cells): decreases the basal oxygen consumption rate
- oxygen consumption rate (OCR) (8505C cells [5]; ATC cells, listed as CP): significantly limited the OCR
